{"source": "paper PMC8329280", "about": "(Scientific Reports, 2021)", "key": {"[1]": {"system": "S. aureus V8", "type": "cell-based, Staphylococcus aureus", "conditions": "V8, 24 h", "procedure": "(§1) Antibacterial assays were realized to the method previously reported[22],[25]. S. aureus strains were pre-cultured for 20 h in aerobic conditions at 37 °C in Mueller–Hinton Broth (MHB) medium (Becton–Dickinson Microbiology Company, Sparks, USA) (pH 7.4). Bacteria were suspended at absorbance of 0.001 at 620 nm in the MHB medium. Antibacterial activity was tested for 24 h incubation at 37 °C with shaking by measuring the inhibition of bacterial growth. Ten µl of final volumes (10–200 µg/mL) of synthetic peptides were incubated in microtitration plates with 90 µl of a mid-logarithmic phase culture of bacteria, with a starting absorbance of 0.001 at 620 nm. A mixture of Tetracycline (10 mg/L) and Cefotaxime (0.1 mg/L) were used as positive controls. Microbial growth was assessed by the increase of absorbance after 24 h incubation at 37 °C. The A620 nm value of control cultures growing in the absence of peptide and antibiotics was defined as 100% growth. A620 nm value with the antibiotics (Tetracycline and Cefotaxime) was taken as 100% inhibition. Absence of bacterial growth was verified by agar plate spreading. Each assay was performed in triplicates. Data were shown as mean + /− standard deviation of three independent experiments; p < 0.05."}, "[2]": {"system": "S. aureus 25923 (MSSA)", "type": "cell-based, Staphylococcus aureus", "conditions": "25923, 24 h", "procedure": "as §1"}, "[3]": {"system": "methicillin sensitive S. aureus (MSSA, strain 49775)", "type": "cell-based, Staphylococcus aureus", "procedure": "as §1"}, "[4]": {"biological_target": "Endoprotease Glu-C from S. aureus V8 (E.C. 3.4.21.19) (Staphylococcus aureus, UniProt P0C1U8)", "sequence (P0C1U8 69-336)": "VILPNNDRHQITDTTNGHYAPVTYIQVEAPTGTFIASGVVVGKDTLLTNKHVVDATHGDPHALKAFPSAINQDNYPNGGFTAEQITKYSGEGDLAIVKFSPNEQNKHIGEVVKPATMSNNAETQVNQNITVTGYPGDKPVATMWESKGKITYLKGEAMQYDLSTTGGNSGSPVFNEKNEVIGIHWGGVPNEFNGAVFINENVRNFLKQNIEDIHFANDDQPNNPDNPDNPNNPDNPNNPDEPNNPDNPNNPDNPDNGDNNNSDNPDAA", "conditions": "50 mM Tris–HCl pH 8.2, 37 °C, enzyme added for 4 h then same amount for 18 h; RP-HPLC, optical density at 214 nm", "procedure": "Endoprotease Glu-C from S. aureus V8 (E.C. 3.4.21.19) was provided from Sigma Aldrich (Saint Louis, USA). Digestion of DOPA5T-Ctl (12.5 µg) by endoprotease Glu-C (Sigma-Aldrich Chemie Saint Quentin Fallavier, France) (3.5 µg) was obtained for 18 h at 37 °C in 50 mM Tris–HCl pH 8.2 or PBS[28]. Enzyme (1.75 µg) was added for a digestion of 4 h and then the same amount was added for 18 h. The enzymatic digestion was stopped by addition of 25 µL of 0.1% (vol/vol) TFA in milliQ water. The fragments resulting from enzymatic digestion were isolated with a RP-HPLC with a Dionex HPLC system on a Vydac 208 TP C8 column (3 × 250 mm), and identified by Maldi-tof mass spectrometry, as previously reported for the characterization of the synthetic peptides."}, "[5]": {"system": "Citrobacter freundii", "type": "cell-based"}, "[6]": {"system": "MRSA", "type": "cell-based, Staphylococcus aureus", "procedure": "(§2) The L- and D- forms of Ctl and also the corresponding L- and D-forms of the scramble peptides were tested by Atlangram (Nantes, France) against resistant Gram-negative bacteria (Escherichia coli, Klebsiella pneumoniae, Enterobacter cloacae, Enterobacter aerogenes, Serratia marcescens, Morganella morganii, Pseudomonas aeruginosa), MSSA, MRSA and yeast (C. albicans). The MICs were determined according to the CASFM/EUCAST 2018 (Comité de l’Antibiogramme de la Société Française de Microbiologie)."}, "[7]": {"system": "MSSA", "type": "cell-based, Staphylococcus aureus", "procedure": "as §2"}, "[8]": {"system": "Enterobacter aerogenes", "type": "cell-based", "procedure": "as §2"}, "[9]": {"system": "Klebsiella pneumoniae", "type": "cell-based", "procedure": "as §2"}, "[10]": {"system": "Morganella morganii", "type": "cell-based", "procedure": "as §2"}, "[11]": {"system": "Escherichia coli", "type": "cell-based", "procedure": "as §2"}, "[12]": {"system": "Candida albicans", "type": "cell-based", "procedure": "as §2"}, "[13]": {"system": "Serratia marcescens", "type": "cell-based", "procedure": "as §2"}, "[14]": {"system": "Pseudomonas aeruginosa", "type": "cell-based", "procedure": "as §2"}, "[15]": {"system": "Enterobacter cloacae", "type": "cell-based", "procedure": "as §2"}, "[16]": {"system": "human gingival fibroblast (HGF-1)", "conditions": "cited from earlier work"}, "[17]": {"system": "proteases produced by Staphylococcus aureus", "conditions": "cited from earlier work", "from_the_text": "In particular, CgA is an acidic glyco-phospho-protein stored in secretory vesicles of numerous nervous, neuroendocrine and immune cells. […] In a ..."}, "[18]": {"system": "human intestinal epithelial cell (caco-2)", "conditions": "cited from earlier work"}}, "note": "pIC50: −log10 of the molar value. Non-standard residues stand in square brackets, D forms with d. Residues, ends and D or L forms follow the SMILES beside them. No end group written: not given here. Dopa = N[C@@H](Cc1ccc(O)c(O)c1)C(=O)O", "data": [{"compound": "CSCC[C@H](NC(=O)[C@H](CO)NC(=O)[C@H](CCCNC(=N)N)NC(=O)[C@H](CCC(=O)O)NC(=O)CNC(=O)CNC(=O)[C@H](CCCNC(=N)N)NC(=O)[C@H](CC(C)C)NC(=O)[C@@H](NC(=O)[C@H](Cc1ccc(O)c(O)c1)NC(=O)[C@H](CCCCN)NC(=O)[C@H](Cc1ccc(O)c(O)c1)NC(=O)[C@H](CCCCN)NC(=O)[C@@H](N)Cc1ccc(O)c(O)c1)[C@@H](C)O)C(=O)N[C@@H](CCCNC(=N)N)C(=O)N[C@@H](CC(C)C)C(=O)N[C@@H](CO)C(=O)N[C@@H](Cc1ccccc1)C(=O)N[C@@H](CCCNC(=N)N)C(=O)N[C@@H](C)C(=O)N[C@@H](CCCNC(=N)N)C(=O)NCC(=O)N[C@@H](Cc1ccc(O)cc1)C(=O)NCC(=O)N[C@@H](Cc1ccccc1)C(=O)N[C@@H](CCCNC(=N)N)C(=O)O", "note": "[DOPA5T-Ctl] (H-[Dopa]K[Dopa]K[Dopa]TLRGGERSMRLSFRARGYGFR-OH)", "values": [{"measurement": "pIC50", "setting": "[1]", "value": 4.19}, {"measurement": "pIC50", "setting": "[2]", "value": 4.70}, {"measurement": "pIC50", "setting": "[3]; methicillin sensitive (, strain 49775, 24 h)", "value": 4.35}, {"measurement": "Ctl and its oxidized form released after Glu-C digestion", "setting": "[4]", "value": 76, "unit": "%"}, {"measurement": "proteolysis by Glu-C endoprotease", "setting": "[4]", "value": "full proteolysis"}]}, {"compound": "FMRLRYRSSAFGGRR [Control L, reference compound]", "values": [{"measurement": "MIC", "setting": "[5]", "value": "> 128", "unit": "µg/mL"}, {"measurement": "MIC", "setting": "[6]", "value": "> 128", "unit": "µg/mL"}, {"measurement": "MIC", "setting": "[7]", "value": "> 128", "unit": "µg/mL"}, {"measurement": "MIC", "setting": "[8]", "value": "> 128", "unit": "µg/mL"}, {"measurement": "MIC", "setting": "[9]", "value": "> 128", "unit": "µg/mL"}, {"measurement": "MIC", "setting": "[10]", "value": "> 128", "unit": "µg/mL"}, {"measurement": "MIC", "setting": "[11]", "value": "> 128", "unit": "µg/mL"}, {"measurement": "MIC", "setting": "[12]", "value": 512, "unit": "µg/mL"}, {"measurement": "MIC", "setting": "[13]", "value": "> 128", "unit": "µg/mL"}, {"measurement": "MIC", "setting": "[14]", "value": "> 128", "unit": "µg/mL"}, {"measurement": "MIC", "setting": "[15]", "value": "> 128", "unit": "µg/mL"}]}, {"compound": "RSMRLSFRARGYGFR [Ctl, Cateslytin]", "values": [{"measurement": "MIC", "setting": "[6]", "value": "> 128", "unit": "µg/mL"}, {"measurement": "MIC", "setting": "[7]", "value": "> 128", "unit": "µg/mL"}, {"measurement": "toxicity for HGF-1", "setting": "[16]", "value": "not toxic"}, {"measurement": "MIC", "setting": "[10]", "value": "> 128", "unit": "µg/mL"}, {"measurement": "MIC", "setting": "[12]", "value": 512, "unit": "µg/mL"}, {"measurement": "MIC", "setting": "[13]", "value": "> 128", "unit": "µg/mL"}, {"measurement": "MIC", "setting": "[14]", "value": "> 128", "unit": "µg/mL"}, {"measurement": "MIC", "setting": "[15]", "value": "> 128", "unit": "µg/mL"}, {"measurement": "degradation by the proteases produced by Staphylococcus aureus", "setting": "[17]", "value": "resistant to degradation"}, {"measurement": "toxicity for caco-2", "setting": "[18]", "value": "not toxic"}, {"measurement": "MIC MSSA", "setting": "[3]; methicillin sensitive (, strain 49775, 20 h)", "value": 93.0, "unit": "µg/mL"}]}]}
